Assay results reported in patent publication US20240051955A1, “4-AMINO-3-(4-PHENOXYPHENYL)-1,3-DIHYDRO-2H-IMIDAZO[4,5-C]PYRIDIN-2-ONE DERIVATIVES AND SALTS THEREOF” (Genzyme Corporation, priority 2020, published 2024).

Key:
[1] = biological target: BTK(h) (Homo sapiens (Human), UniProt Q06187); assay: BTK(h) kinase activity study; format: biochemical; conditions: no pre-incubation of compound with enzyme/substrate mix prior to ATP addition
Experimental: Compounds of Formula Ib, Formula II, and Formula III were tested against BTK(h) as described herein. All compounds tested were prepared to a working stock of 50× final assay concentration in 100% DMSO. Where appropriate, more concentrated stocks were diluted manually to 50× using 100% DMSO. Compounds, which were powders, were reconstituted to a 10 mM stock in 100% DMSO before further dilution to 50×.
The required volume of the 50× stock of test compound was added to the assay well before a reaction mix containing the enzyme and substrate was added. The reaction was initiated by the addition of ATP at the selected concentration. There was no pre-incubation of the compound with the enzyme/substrate mix prior to ATP addition.
Results are expressed as kinase activity remaining, as a percentage of the DMSO control. This is calculated using the following formula: […]
For IC50 determinations, data are analyzed using XLFit version 5.3 (ID Business Solutions). Sigmoidal dose-response (variable slope) curves are fit based on the mean result for each test concentration using non-linear regression analysis. Where the top and/or bottom of the curve fall >10% out with 100 and 0, respectively, either or both of these limits may be constrained at 100 and 0, provided that the QC criterion on R^2 is met.

[2] = biological target: Dopamine transporter (h) (Homo sapiens (Human), UniProt Q01959); assay: Dopamine transporter (h) binding assay, [3H]BTCP; conditions: Human recombinant (CHO cells); [3H]BTCP 4 nM; 120 min 4° C.
Sequence of Dopamine transporter (h) (Q01959 whole entry): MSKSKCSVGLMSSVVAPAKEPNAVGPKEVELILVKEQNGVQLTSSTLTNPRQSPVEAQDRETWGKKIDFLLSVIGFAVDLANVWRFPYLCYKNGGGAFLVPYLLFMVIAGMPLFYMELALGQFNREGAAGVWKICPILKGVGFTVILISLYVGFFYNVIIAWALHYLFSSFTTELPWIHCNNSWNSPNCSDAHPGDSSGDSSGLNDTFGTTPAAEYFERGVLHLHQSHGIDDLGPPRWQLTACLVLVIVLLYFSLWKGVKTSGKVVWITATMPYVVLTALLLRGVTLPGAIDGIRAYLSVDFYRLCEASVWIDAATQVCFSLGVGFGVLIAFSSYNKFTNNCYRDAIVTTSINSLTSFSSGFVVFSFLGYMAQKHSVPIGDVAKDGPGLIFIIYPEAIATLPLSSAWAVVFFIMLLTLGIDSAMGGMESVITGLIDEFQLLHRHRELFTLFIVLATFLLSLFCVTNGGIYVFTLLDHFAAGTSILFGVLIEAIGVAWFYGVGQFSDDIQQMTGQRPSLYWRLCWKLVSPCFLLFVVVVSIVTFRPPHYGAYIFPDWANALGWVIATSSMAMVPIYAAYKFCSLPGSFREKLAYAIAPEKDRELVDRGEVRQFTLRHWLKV
Experimental: (§1) Compounds of Formula Ia, Formula Ib, Formula III, Formula IV, and Formula V were tested in various in vitro assays. Compound binding was calculated as a % inhibition of the binding of a radioactively labeled ligand specific for each target. Compound enzyme inhibition effect was calculated as a % inhibition of control enzyme activity.
The general procedure is noted below. See Pristupa, Z. B. et al. (1994), Mol. Pharmacol., 45: 125-135. Minor variations to the experimental protocol described below may have occurred during the testing, but if so, they had no impact on the quality of the results obtained.

[3] = biological target: H2 (h) (Homo sapiens (Human), UniProt P25021); assay: H2 (h) binding assay, [125I]APT; conditions: Human recombinant (CHO cells); [125I]APT 0.075 nM; 120 min RT
Sequence of H2 (h) (P25021 whole entry): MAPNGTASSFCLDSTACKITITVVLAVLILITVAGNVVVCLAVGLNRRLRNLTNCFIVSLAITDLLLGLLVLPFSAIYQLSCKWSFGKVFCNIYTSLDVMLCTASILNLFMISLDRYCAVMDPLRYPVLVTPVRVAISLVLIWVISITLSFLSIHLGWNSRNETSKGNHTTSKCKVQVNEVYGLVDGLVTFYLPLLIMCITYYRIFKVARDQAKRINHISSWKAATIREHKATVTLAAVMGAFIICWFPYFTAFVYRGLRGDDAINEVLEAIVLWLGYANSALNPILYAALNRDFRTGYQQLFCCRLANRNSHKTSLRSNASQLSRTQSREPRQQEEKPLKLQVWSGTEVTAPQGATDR

[4] = biological target: δ (DOP) (h) (Homo sapiens (Human), UniProt P41143); assay: δ (DOP) (h) binding assay, [3H]DADLE; conditions: Human recombinant (Chem-1 (RBL) cells); [3H]DADLE 0.5 nM; 60 min RT
Sequence of δ (DOP) (h) (P41143 whole entry): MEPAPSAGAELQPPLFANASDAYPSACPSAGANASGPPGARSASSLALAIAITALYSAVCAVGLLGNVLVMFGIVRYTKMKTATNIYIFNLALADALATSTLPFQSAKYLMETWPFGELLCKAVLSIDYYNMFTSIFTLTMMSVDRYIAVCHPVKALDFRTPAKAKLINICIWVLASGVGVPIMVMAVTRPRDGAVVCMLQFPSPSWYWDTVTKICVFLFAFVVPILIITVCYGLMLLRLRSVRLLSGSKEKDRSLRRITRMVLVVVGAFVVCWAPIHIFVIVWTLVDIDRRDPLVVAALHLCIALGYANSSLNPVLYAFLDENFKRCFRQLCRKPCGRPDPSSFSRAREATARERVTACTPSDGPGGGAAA
Experimental: as §1
The general procedure is noted below. See Simonin, F. et al. (1994), Mol. Pharmacol., 46: 1015-1021. Minor variations to the experimental protocol described below may have occurred during the testing but if so, they had no impact on the quality of the results obtained.

[5] = biological target: kappa (h) (KOP) (Homo sapiens (Human), UniProt P41145); assay: kappa (h) (KOP) binding assay, [3H]U69593; conditions: Human recombinant (RBL cells); [3H]U69593 0.5 nM; 60 min RT
Sequence of kappa (h) (KOP) (P41145 whole entry): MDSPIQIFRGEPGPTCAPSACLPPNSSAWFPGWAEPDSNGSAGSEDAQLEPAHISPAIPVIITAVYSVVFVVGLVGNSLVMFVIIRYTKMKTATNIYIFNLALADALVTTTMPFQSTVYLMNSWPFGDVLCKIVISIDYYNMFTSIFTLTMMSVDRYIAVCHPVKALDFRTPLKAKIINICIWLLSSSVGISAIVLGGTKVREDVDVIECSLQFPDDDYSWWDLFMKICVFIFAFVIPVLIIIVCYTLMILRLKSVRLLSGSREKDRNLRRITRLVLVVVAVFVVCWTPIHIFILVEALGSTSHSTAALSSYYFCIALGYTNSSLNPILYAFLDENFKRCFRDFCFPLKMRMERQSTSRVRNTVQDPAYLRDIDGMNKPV
Experimental: as §1
The general procedure is noted below. See Simonin, F. et al. (1995), Proc. Natl. Acad. Sci. U.S.A., 92: 7006-7010. Minor variations to the experimental protocol described below may have occurred during the testing but if so, they had no impact on the quality of the results obtained.

[6] = biological target: 5-HT5a (h) (Homo sapiens (Human), UniProt P47898); assay: 5-HT5a (h) binding assay, [3H]LSD; conditions: Human recombinant (HEK-293 cells); [3H]LSD 1.5 nM; 120 min 37° C.
Sequence of 5-HT5a (h) (P47898 whole entry): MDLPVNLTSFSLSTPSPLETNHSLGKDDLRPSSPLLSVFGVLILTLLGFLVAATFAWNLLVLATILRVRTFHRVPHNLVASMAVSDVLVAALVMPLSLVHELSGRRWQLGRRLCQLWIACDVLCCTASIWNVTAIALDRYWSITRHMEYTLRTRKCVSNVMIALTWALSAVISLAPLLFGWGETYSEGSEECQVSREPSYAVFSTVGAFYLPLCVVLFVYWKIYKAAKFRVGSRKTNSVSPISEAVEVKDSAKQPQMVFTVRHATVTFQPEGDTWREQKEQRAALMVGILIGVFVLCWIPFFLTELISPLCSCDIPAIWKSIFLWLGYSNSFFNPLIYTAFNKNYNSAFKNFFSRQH
Experimental: as §1
The general procedure is noted below. See Rees, S. et al. (1994), FEBS Lett., 355: 242-246. Minor variations to the experimental protocol described below may have occurred during the testing but if so, they had no impact on the quality of the results obtained.

[7] = biological target: Norepinephrine transporter (h) (Homo sapiens (Human), UniProt P23975); assay: Norepinephrine transporter (h) binding assay, [3H]nisoxetine; conditions: Human recombinant (CHO cells); [3H]nisoxetine 1 nM; 120 min 4° C.
Sequence of Norepinephrine transporter (h) (P23975 whole entry): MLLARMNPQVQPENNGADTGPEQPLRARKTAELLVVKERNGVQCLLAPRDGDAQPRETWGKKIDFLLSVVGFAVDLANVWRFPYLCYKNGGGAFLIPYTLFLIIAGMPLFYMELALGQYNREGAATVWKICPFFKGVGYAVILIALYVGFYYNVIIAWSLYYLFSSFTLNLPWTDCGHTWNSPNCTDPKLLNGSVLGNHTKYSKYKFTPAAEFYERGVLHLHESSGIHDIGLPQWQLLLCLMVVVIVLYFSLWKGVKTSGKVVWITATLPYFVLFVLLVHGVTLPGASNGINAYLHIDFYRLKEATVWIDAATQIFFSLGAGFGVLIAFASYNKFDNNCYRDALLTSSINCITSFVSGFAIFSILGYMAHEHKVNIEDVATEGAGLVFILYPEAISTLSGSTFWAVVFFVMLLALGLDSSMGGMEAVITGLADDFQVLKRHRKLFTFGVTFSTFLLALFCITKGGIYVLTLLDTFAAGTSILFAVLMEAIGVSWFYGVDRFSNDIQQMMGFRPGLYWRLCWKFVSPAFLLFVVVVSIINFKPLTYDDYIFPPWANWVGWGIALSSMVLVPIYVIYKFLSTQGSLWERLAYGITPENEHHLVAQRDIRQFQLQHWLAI
Experimental: as §1
The general procedure is noted below. See Pacholczyk, T. et al. (1991), Nature, 350: 350-354. Minor variations to the experimental protocol described below may have occurred during the testing but if so, they had no impact on the quality of the results obtained.

Sequence of BTK(h) (Q06187 whole entry): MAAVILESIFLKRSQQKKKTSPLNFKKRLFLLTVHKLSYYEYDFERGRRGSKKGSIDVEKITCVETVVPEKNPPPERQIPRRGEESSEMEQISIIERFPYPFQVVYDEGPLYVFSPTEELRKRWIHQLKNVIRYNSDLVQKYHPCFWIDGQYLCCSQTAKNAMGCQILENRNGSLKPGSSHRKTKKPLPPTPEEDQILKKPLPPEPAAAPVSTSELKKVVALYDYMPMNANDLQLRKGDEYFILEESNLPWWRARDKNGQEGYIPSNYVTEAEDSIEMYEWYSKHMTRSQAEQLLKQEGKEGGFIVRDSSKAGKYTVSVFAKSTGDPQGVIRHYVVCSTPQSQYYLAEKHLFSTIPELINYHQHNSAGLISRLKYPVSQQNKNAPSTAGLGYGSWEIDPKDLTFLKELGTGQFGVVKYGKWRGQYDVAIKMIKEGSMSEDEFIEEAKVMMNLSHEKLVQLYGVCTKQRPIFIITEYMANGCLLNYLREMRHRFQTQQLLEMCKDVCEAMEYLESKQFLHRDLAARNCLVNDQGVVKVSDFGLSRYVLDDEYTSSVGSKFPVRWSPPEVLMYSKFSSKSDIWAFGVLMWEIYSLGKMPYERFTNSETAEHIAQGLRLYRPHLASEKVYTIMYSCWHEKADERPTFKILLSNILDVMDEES

SMILES | IC50 [1] | % inhibition of the binding of radioactively labeled ligand [2] | % inhibition of the binding of radioactively labeled ligand [3] | % inhibition of the binding of radioactively labeled ligand [4] | % inhibition of the binding of radioactively labeled ligand [5] | % inhibition of the binding of radioactively labeled ligand [6] | % inhibition of the binding of radioactively labeled ligand [7]
Nc1nccc2c1n(-c1ccc(Oc3ccccc3)cc1)c(=O)n2[C@@H]1CCCN(C(=O)C(O)CO)C1 (stereo partly drawn) [Formula II, 4-amino-3-(4-phenoxyphenyl)-1-[(3R)-1-(2,3-dihydroxypropanoyl)-3-piperidyl]imidazo[4,5-c]pyridin-2-one] | 0.279 µM |  |  |  |  |  | 
Nc1nccc2c1n(-c1ccc(Oc3ccccc3)cc1)c(=O)n2[C@@H]1CCCNC1 [Formula III] | 1.38 µM | 96.2% | 56.7% | 56.7% | 54.6% | 56.1% | 66.7%
C=CC(=O)N1C[C@@H](O)C[C@@H](n2c(=O)n(-c3ccc(Oc4ccccc4)cc3)c3c(N)nccc32)C1 [Formula Ia, 4-amino-1-[(3R,5S)-5-hydroxy-1-prop-2-enoyl-3-piperidyl]-3-(4-phenoxyphenyl)imidazo[4,5-c]pyridin-2-one] |  | 65% |  |  |  |  | 
C=CC(=O)N1C[C@H](O)C[C@@H](n2c(=O)n(-c3ccc(Oc4ccccc4)cc3)c3c(N)nccc32)C1 [Formula Ib, 4-amino-1-[(3R,5R)-5-hydroxy-1-prop-2-enoyl-3-piperidyl]-3-(4-phenoxyphenyl)imidazo[4,5-c]pyridin-2-one] | 0.034 µM |  |  |  |  |  | 
